The values below come from PubChem BioAssay (NCI).

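1) Cells in 96-well plates. 2) Compound, 48 h, 5 concentrations. 3) Linear interpolation between surrounding doses. 4) Unreached endpoint = highest concentration. The concentration for 50% growth inhibition is given as GI50. TGI: total growth inhibition.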 Where only a bound is given, the exact number is not on record here.

Holding throughout (test): inhibition of tumour cell growth, NCI panel, 48 h
In assay [1] the test system is NCI-H522 lung.
For assay [2], the system named is HCC-2998 colon.
For assay [3], the system named is A549 NSCLC.
The subject of assay [4] is SW-620 colon.
Assay [5] relates to COLO 205 colon.
Assay [6] concerns SF-295 CNS.
Assay [7] has as its system OVCAR-8 ovarian.
Assay [8] concerns SK-OV-3 ovarian.
Assay [9] has as its system TK-10 renal.
The subject of assay [10] is RPMI-8226 leukemia.

For the molecule `COC(C(=O)[C@@H](O)[C@@H](C)O)[C@@H]1Cc2cc3cc(O[C@H]4C[C@@H](O[C@H]5C[C@@H](O)[C@H](O)C(C)O5)[C@H](O)C(C)O4)c(C)c(O)c3c(O)c2C(=O)[C@H]1O[C@H]1C[C@@H](O[C@H]2C[C@@H](O[C@H]3C[C@@H](O)[C@H](OC)C(C)O3)[C@@H](O)C(C)O2)[C@H](O)C(C)O1` (stereo partly specified), the GI50 in [1] was 0.0101 µM; in assay [2], 0.0293 µM; in [4] it was 0.0197 µM; in assay [5], 0.0145 µM; in assay [6], 0.0141 µM; in assay [7] it was 0.0286 µM. The GI50 in assay [10] was 0.0141 µM. For the same molecule, the TGI was 0.0569 µM in assay [1]; 0.114 µM in [2]; > 33.3 µM in assay [3]; > 33.3 µM in [4]; 0.0521 µM in [5]; > 33.3 µM in [6]. The TGI in assay [7] was > 33.3 µM; in assay [8] it was > 33.3 µM; in [9] it was 0.322 µM; in assay [10] it was 7.13 µM.

Turning to `COCOc1ccc(C2(O)Oc3cc(OCOC)ccc3C2C)c(O)c1` (stereo unspecified), the TGI in assay [1] was found to be 32.8 µM; in [2], 26.6 µM; in assay [3], 31.9 µM; in assay [4] it was 32.4 µM; in assay [5], 32.2 µM; in [6], 29 µM. Moreover, the TGI in [7] was 32 µM; in assay [8] it was 31.8 µM; in [9] it was 32.5 µM; in [10], > 100 µM.

Regarding `COC1=C(Br)C(=O)c2nc(C)ccc2C1=O`, the TGI came to 15.8 µM in assay [1]; 32.2 µM in assay [2]; 38.5 µM in assay [3]; 21.7 µM in assay [4]; 24.6 µM in [5]; 34.7 µM in assay [6]. Moreover, the TGI is 16.6 µM in assay [7], 33.6 µM in assay [8], 32.4 µM in [9] and > 22.6 µM in assay [10].

On to `N.N.NCCCCCCCCCN.O=C([O-])CC(=O)[O-].O=C([O-])CC(=O)[O-].[Pt+4].[Pt+4]`, for which the GI50 in [1] was 67.5 µM; in [2], > 100 µM; in [3], > 100 µM; in [4], 66.4 µM; in assay [5], > 100 µM; in [6], > 100 µM. Besides, the GI50 in assay [7], in [8], in [9] and in assay [10] was > 100 µM in each case. Also, the TGI in [1], in [2], in assay [3], in [4], in [5] and in assay [6] was > 100 µM in each case. The TGI in assay [7], in [8], in assay [9] and in assay [10] was > 100 µM each time.

As for `O=C(NO)c1ccc(CN(c2cnccn2)c2cnccn2)cc1`, the GI50 is 4.19 µM in assay [1]; 13.2 µM in assay [2]; 13.9 µM in [3]; 12.5 µM in assay [4]; 2.96 µM in [5]; 14.8 µM in assay [6]. The GI50 is 3.75 µM in assay [7], 14.6 µM in assay [8], 11.3 µM in [9] and 8.68 µM in assay [10]. For the same molecule, the TGI in [1] came out at 18 µM; in assay [2], 26.8 µM; in assay [3] it was 36.5 µM; in assay [4], 33.7 µM; in assay [5] it was 8.17 µM; in [6], 33.4 µM. In addition, the TGI is 17.2 µM in assay [7], 29.5 µM in [8], 42 µM in [9] and > 100 µM in assay [10].

As to `Cc1cccc(C(C)C)c1NC(=O)C(=O)C(C(=O)c1ccccc1F)C1OC(=O)c2ccccc21` (stereo unspecified), the TGI in [1] was 33.6 µM; in assay [2] it was 26.6 µM; in assay [3], > 100 µM; in assay [4] it was 58.9 µM; in assay [5] it was 41 µM; in assay [7] it was 59.7 µM. Also, the results for the TGI in [8], in assay [9] and in assay [10] were 64.9 µM, 91.1 µM and 28.5 µM, respectively.

In the case of `O=C1CSC(c2ccc(-c3nc4ccccc4s3)cc2)=N1`, the GI50 was 32.9 µM in assay [1]; 25.9 µM in assay [2]; 43.9 µM in assay [3]; 50.5 µM in assay [4]; > 100 µM in assay [5]; 20.9 µM in assay [6]. The GI50 in assay [7] is 11.1 µM; in [8], 53.2 µM; in [9] it was 17.5 µM; in assay [10] it was 23.2 µM. The TGI in [1] was 96.2 µM; in assay [2] it was 78.5 µM; in [3], > 100 µM; in assay [4], > 100 µM; in [5] it was > 100 µM; in assay [6], > 100 µM. Further, the TGI in [7] is > 100 µM; in assay [8] it was > 100 µM; in [9], 65.1 µM; in [10] it was 52.6 µM.

In the case of `c1ccc(CSc2nc3ccccc3nc2-c2cccs2)cc1`, the TGI in assay [1], in assay [2], in assay [3], in [5], in assay [6] and in assay [7] was > 100 µM throughout. In addition, the TGI in assay [8], in [9] and in assay [10] was > 100 µM each time.

For the molecule `CO/N=C(/C)c1cccc(Nc2cc(-c3ccccc3)nc3ccc(OC)cc23)c1`, the GI50 in assay [1] was 17.8 µM; in assay [2], 4.97 µM; in [3], 23.1 µM; in assay [4], 4.74 µM; in assay [5], 33.1 µM; in assay [6], 3.82 µM. The figures for the GI50 in assay [8], in assay [9] and in assay [10] were 29.2 µM, 3.32 µM and 3.12 µM, respectively. For the same molecule, the TGI in [1] was > 100 µM; in assay [2], 20.8 µM; in assay [3], 53.9 µM; in [4], 29.6 µM; in [5], 97.8 µM; in [6] it was 21.1 µM. The TGI in [8] amounted to 72 µM; in assay [9], 12.8 µM; in [10] it was 8.28 µM.

Consider `O=C1C(Cl)=C(Nc2ccccc2O)C(=O)N1Cc1ccccc1`, for which the GI50 in [1] is 29.1 µM; in assay [2] it was 20.9 µM; in [3], 20.3 µM; in [5] it was 24.2 µM; in assay [6] it was 26.2 µM; in assay [7], 18.3 µM. Further, the values for the GI50 in assay [8], in assay [9] and in assay [10] were 28.5 µM, 28.7 µM and 12.5 µM, respectively. In addition, the TGI was found to be 97.2 µM in assay [1]; 35.3 µM in assay [2]; 46 µM in assay [3]; 46.8 µM in [5]; 52.9 µM in [6]; 34 µM in [7]. Further, the figures for the TGI in [8], in assay [9] and in assay [10] were 71.9 µM, 62.1 µM and 27.2 µM, respectively.

`CCCCCc1ccc(S(=O)(=O)Nc2cc(-c3csc(NC(C)=O)n3)ccc2N2CCN(C)CC2)cc1`: the GI50 in assay [1] is 6.35 µM; in assay [2], 1.62 µM; in assay [3], 5.11 µM; in assay [4], 1.31 µM; in assay [5] it was 5.16 µM; in assay [6], 4.9 µM. Moreover, the results for the GI50 in assay [7], in assay [8] and in assay [9] were 5.82 µM, 5.95 µM and 6.09 µM, respectively. Moreover, the TGI in assay [1] turned out to be 13 µM; in assay [2], 5.47 µM; in assay [3], 11.8 µM; in assay [4], 4.72 µM; in [5], 11.8 µM; in [6], 9.59 µM. Moreover, the TGI came to 13.1 µM in assay [7], 11.5 µM in assay [8] and 11.7 µM in assay [9].

Take `Clc1cc(Cl)cc(Nc2ccc3cc(OCCCN4CCOCC4)ccc3n2)c1`: the GI50 in assay [1] was 2.08 µM; in assay [2], 1.73 µM; in [3] it was 3.93 µM; in assay [5], 1.78 µM; in assay [6] it was 1.66 µM; in [7], 4.36 µM. Besides, the GI50 in assay [8] was 2.62 µM; in assay [9], 2.88 µM; in assay [10] it was 2.2 µM. For the same molecule, the TGI is 5.22 µM in [1]; 3.31 µM in assay [2]; > 100 µM in [3]; 3.67 µM in assay [5]; 3.65 µM in assay [6]; > 100 µM in assay [7]. Further, the TGI in [8] was found to be 7.24 µM; in assay [9], 8.21 µM; in [10] it was 7.08 µM.

For the molecule `CC1CN1c1c(C(=O)/C=C/c2ccc(Cl)cc2)c(-c2ccccc2)nn(C)c1=O` (stereo unspecified), the TGI in [1] is 5.99 µM; in assay [2], 4.2 µM; in assay [3] it was > 10 µM; in assay [4], 6.81 µM; in [5], 3.67 µM; in assay [6], > 10 µM. Moreover, the TGI was determined as 5.67 µM in [7], 5.76 µM in [8] and 8.94 µM in [9].
